According to ChEMBL document CHEMBL3098116, “Synthesis and biological evaluation of the pirfenidone derivatives as antifibrotic agents” (Bioorg Med Chem Lett, 2014):

Columns and labels:
MRC5 = experiment: Antifibrotic activity in human MRC5 cells assessed as inhibition of cell growth after 24 hrs by MTT assay; assay type: functional, cell-based; conditions: MRC5, 24 h
[1] = molecular target: T1, Mitogen-activated protein kinase 14 (Homo sapiens, UniProt Q16539); experiment: Inhibition of p38alpha (unknown origin) up to 60 mins by ADP-Glo assay
T1 sequence (Q16539 whole entry): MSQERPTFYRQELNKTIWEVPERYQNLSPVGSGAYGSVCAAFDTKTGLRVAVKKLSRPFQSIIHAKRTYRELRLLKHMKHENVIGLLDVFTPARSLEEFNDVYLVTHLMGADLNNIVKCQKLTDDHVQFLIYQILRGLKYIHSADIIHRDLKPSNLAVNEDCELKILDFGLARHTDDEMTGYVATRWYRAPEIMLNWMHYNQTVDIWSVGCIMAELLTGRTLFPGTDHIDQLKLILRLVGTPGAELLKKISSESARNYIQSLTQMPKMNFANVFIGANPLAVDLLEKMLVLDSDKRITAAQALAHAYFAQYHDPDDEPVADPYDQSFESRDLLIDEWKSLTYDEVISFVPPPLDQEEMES

[2] = molecular target: T1, Mitogen-activated protein kinase 14; experiment: Ratio of pirfenidone IC50 for compound IC50 for p38alpha (unknown origin) up to 60 mins by ADP-Glo assay

| Structure (SMILES) | IC50 (MRC5) [µM] | IC50 [1] [µM] | Ratio IC50 [2] |
| --- | --- | --- | --- |
| CCN(CC)CCCOc1ccc(-n2cc(C)ccc2=O)cc1 | 2100 | – | – |
| CCN(CC)CCOc1ccc(-n2cc(C)ccc2=O)cc1 | 6200 | – | – |
| Cc1ccc(=O)n(-c2ccc(OCCN3CCCCC3)cc2)c1 | 2480 | 54.3 | – |
| Cc1ccc(=O)n(-c2ccc(OCCCN3CCCCC3)cc2)c1 | 2550 | 4.07 | 40 |
| Cc1ccc(=O)n(-c2ccc(OCCN3CCOCC3)cc2)c1 | 7640 | – | – |
| Cc1ccc(=O)n(-c2ccc(OCCCN3CCN(C)CC3)cc2)c1 | 4360 | – | – |
| Cc1ccc(=O)n(-c2ccc(OCCCCCN(C)C)cc2)c1 | 2980 | – | – |
| Cc1ccc(=O)n(-c2ccc(OCCCCCN3CCCC3)cc2)c1 | 1470 | – | – |
| Cc1ccc(=O)n(-c2ccc(OCCCCN3CCCCC3)cc2)c1 | 3290 | 5.21 | – |
| Cc1ccc(=O)n(-c2ccc(OCCCCN3CCCC3)cc2)c1 | 1770 | – | – |
| Cc1ccc(=O)n(-c2ccc(OCCCCN3CCOCC3)cc2)c1 | 3030 | – | – |
| CCN(CC)CCCCCOc1ccc(-n2cc(C)ccc2=O)cc1 | 4350 | – | – |
| Cc1ccc(=O)n(-c2ccc(OCCCN(C)C)cc2)c1 | 5220 | 14.2 | – |
| Cc1ccc(=O)n(-c2ccc(OCCCCN3CCN(C)CC3)cc2)c1 | 2330 | – | – |
| Cc1ccc(=O)n(-c2ccc(OCCN3CCCC3)cc2)c1 | 3780 | – | – |
| Cc1ccc(=O)n(-c2ccc(OCCCCN(C)C)cc2)c1 | 1800 | – | – |
| Cc1ccc(=O)n(-c2ccc(OCCCN3CCOCC3)cc2)c1 | 5280 | – | – |
| Cc1ccc(=O)n(-c2ccc(OCCN(C)C)cc2)c1 | 6880 | – | – |
| Cc1ccc(=O)n(-c2ccc(OCCCN3CCCC3)cc2)c1 | 3000 | – | – |
| Cc1ccc(=O)n(-c2ccc(OCCCCCN3CCOCC3)cc2)c1 | 2590 | – | – |
| Cc1ccc(=O)n(-c2ccc(OCCN3CCN(C)CC3)cc2)c1 | 1360 | – | – |
| Cc1ccc(=O)n(-c2ccc(OCCCCCN3CCCCC3)cc2)c1 | 3670 | 16.2 | – |
| Cc1ccc(=O)n(-c2ccccc2)c1 [PIRFENIDONE] | 14400 | 165 | – |
| Cc1ccc(=O)n(-c2ccc(OCCCCCN3CCN(C)CC3)cc2)c1 | 3410 | – | – |
| CCN(CC)CCCCOc1ccc(-n2cc(C)ccc2=O)cc1 | 2160 | – | – |
